Like-named read-outs stand apart in the source and are kept apart here.
Assays:
[1] = Electroconductivity in fluorinated solvent B (HFE7100/DMC 80:20); type: physicochemical; settings: for concentration at which maximum electroconductivity was obtained / maximum electroconductivity / electroconductivity (result in words): solvent B: HFE7100/DMC 80:20; for improvement of electroconductivity: solvent B, versus LiN (SO2CF3)2
[2] = 1 M in PC; platinum working electrode, lithium counter/reference; sweep 10 mV/sec
Description: By use of these nonaqueous electrolytes, the respective oxidation decomposition potential values have been compared using the method described below.

[3] = for improvement of electroconductivity by factor: solvent A, versus lithium bis-salicylate borate (comparative example 1)
[4] = solvent B: HFE7100/DMC 80:20; salt dissolved to 0.1 M
[5] = 1 M in PC; versus comparative example 8

Molecule	concentration at which maximum electroconductivity was obtained [1]	maximum electroconductivity [1]	potential from which significant changes in oxidation current are observed (oxidation decomposition potential) [2]	concentration at which maximum electroconductivity was obtained ([3]; solvent A: PC/DMC 1:2)	maximum electroconductivity ([3]; solvent A: PC/DMC 1:2)	improvement of electroconductivity by factor [3]	further results
O=C(O[B-](OC(=O)C(F)(F)F)(OC(=O)C(F)(F)F)OC(=O)C(F)(F)F)C(F)(F)F.[Li+] [LB1, Lithium Tetrakis (Trifluoroacetate) Borate]	0.8 M	1.55 mS/cm	6.7 V	0.8 M	7.8 mS/cm	up to 18	improvement of electroconductivity [1]: 2.2 times
CC(=O)O[B-](OC(C)=O)(OC(C)=O)OC(C)=O.[Li+] [LB4, Lithium Tetrakis (Acetate) Borate]							electroconductivity of the nonaqueous electrolyte ([3]; solvent A: PC/DMC 1:2, at the dissolved concentration (about 0.1 M)): 0.02 mS/cm
F[B-](F)(F)F.[Li+] [LiBF4, lithium tetrafluoroborate, reference compound]							electroconductivity (result in words) [1]: no electroconductivity has been measurable; phase behaviour of the solution [4]: the phase of the solvent has separated into two layers
O=S(=O)([N-]S(=O)(=O)C(F)(F)F)C(F)(F)F.[Li+] [LiN (SO2CF3)2, lithium bis-(trifluoromethanesulfonyl)imide, reference compound]	1 M	0.69 mS/cm	5.8 V				
Lithium Tetrakis (Pentafluoropropanoate) Borate [LB2]	0.6 M	1.7 mS/cm	6.5 V	0.6 M	5.8 mS/cm	up to 13.4	improvement of electroconductivity [1]: 2.4 times
Lithium Tetrakis (Trichloroacetate) Borate [LB3]			6.4 V	0.5 M	4.3 mS/cm	up to 10	
Tetraethyl Ammonium Tetrakis (Trifluoroacetate) Borate [AB1]							increase of potential window at the oxidation side [5]: 0.5 V
lithium bis-benzenediolate [reference compound]							electroconductivity (result in words) [1]: no electroconductivity has been measurable

Reference: patent US6824928B2, “Organic borate compounds and the nonaqueous electrolytes and lithium secondary batteries using the compounds” (Hitachi, Ltd., priority 2000, dated 2004)
